In brackets after ≈: the same amount, converted by molar mass. Several values for one entry are separate records, joined by “and”; a condition that tells them apart may be missing. Equal entries are not always repeated. Where two headings read alike, the source gives them in different places.
Experiments:
[1] = system: H37Rv TB; details: current TB clinical candidates; cited from earlier work
[2] = system: MDR-TB; details: current TB clinical candidates; cited from earlier work
[3] = system: TB; details: strain not stated; cited from earlier work
[4] = system: M. chelonae; test: NTM activity, M. chelonae; assay type: cell-based
[5] = system: M. marinum; test: NTM activity, M. marinum; assay type: cell-based
[6] = system: M. avium; test: NTM activity, M. avium; assay type: cell-based
[7] = system: M. kansasii; test: NTM activity, M. kansasii; assay type: cell-based
[8] = system: M. bovis BCG; test: NTM activity, M. bovis BCG; assay type: cell-based
[9] = system: H37Rv TB; test: in vitro activity against H37Rv TB (MIC); assay type: cell-based; details: Mycobacterium tuberculosis
[10] = system: MDR-TB; test: MIC against MDR-TB (Table 1); assay type: cell-based; details: Mycobacterium tuberculosis
[11] = system: VERO cells (African Green Monkey epithelial kidney cells); test: VERO cellular toxicity assay; assay type: cell-based; details: Chlorocebus sabaeus
[12] = system: HeLa cells; test: toxicity to HeLa cells; assay type: cell-based
[13] = system: M. smegmatis; test: cross screen against M. smegmatis; assay type: cell-based; details: Mycolicibacterium smegmatis
[14] = system: panel of diverse organisms (Gram-positive and Gram-negative strains, yeast, fungi, cancer cell lines, VERO cell line); test: screen against a panel of diverse control organisms and cell lines; assay type: cell-based; details: B. subtilis, S. aureus, MRSA, VRE E. faecalis, E. coli, P. aeruginosa, S. salmonicolor, C. albicans, P. notatum, Huvec, K-562, HeLa, PC-3, MCF-7, VERO
From the text: In embodiments, compounds ND-8448, ND-8451 and ND-8454 were all screened against a panel of diverse organisms which included four Gram-positive strains (Bacillus subtilis, Staphylococcus aureus, MRSA Staphylococcus aureus, VRE Enterococcus Faecalis), two Gram-negative strains (E. coli, Pseudomonas aeruginosa), a yeast (Sporobolomyces salmonicolor) and fungi (Candida albicans and Penicillium notatum), as well as five cancer cell lines (Huvec, K-562, HeLa, PC-3 and MCF-7) and the VERO cell line to check for mammalian toxicity.

[15] = Mycobacterium tuberculosis variant bovis BCG, BCG

Structure (SMILES) | MIC90 [4] | MIC90 [5] | MIC90 [6] | MIC90 ([7]; M. kansasii) | MIC90 ([8]; M. bovis BCG) | further results
COc1nc2ccc(Br)cc2cc1[C@@H](c1ccccc1)[C@@](O)(CCN(C)C)c1cccc2ccccc12 [TMC207] | – | – | – | – | – | MIC [1]: MIC = 0.06 μg/mL vs. H37Rv and MDR-TB; MIC [2]: MIC = 0.06 μg/mL vs. H37Rv and MDR-TB
Cc1c(CN2CCN(c3cccc(C(F)(F)F)c3)CC2)cc(-c2ccccc2)n1NC(=O)c1ccncc1 [LL-3858] | – | – | – | – | – | MIC [3]: MIC = 0.06 μg/mL
CC[C@@H](CO)NCCN[C@@H](CC)CO [EMB, reference compound] | >2000 µM | 965.56 µM (≈ 197 µg/mL) | >2000 µM | <7.813 µM | <7.813 µM | –
Cc1ccn2c(C(=O)NCc3cccc(OC(C)C)c3)c(C)nc2c1 [ND-9872] | >50 µM | >50 µM | 0.71 µM (≈ 0.24 µg/mL) | 0.71 µM (≈ 0.24 µg/mL) | <0.195 µM | –
COc1c(N2CCNC(C)C2)c(F)cc2c(=O)c(C(=O)O)cn(C3CC3)c12 (stereo not shown) [Gatifloxacin] | – | – | – | – | – | MIC [1]: MIC = 0.03-1.56 μg/mL H37Rv TB; MIC [2]: MIC = 3.12 μg/mL MDR-TB
Cc1ccn2c(C(=O)NCc3ccccc3)c(C)nc2c1 [ND-8454, N-benzyl-2,7-dimethylimidazo[1,2-a]pyridine-3-carboxamide] | – | – | – | – | – | MIC [9]: 0.08 µg/mL and 0.286 µM; MIC [10]: 0.02 µg/mL (≈ 0.0716 µM); IC50 [11]: > 128 µM; toxicity to HeLa cells [12]: > 50 µM; MIC90 [13]: ≥ 5 µg/mL; MIC90 ([4]; Mycobacteroides chelonae): > 50 µM; MIC90 ([5]; Mycobacterium marinum): > 50 µM; MIC90 ([6]; Mycobacterium avium): 1.32 µM (≈ 0.369 µg/mL); MIC90 ([7]; Mycobacterium kansasii): 1.32 µM (≈ 0.369 µg/mL); MIC90 [8, 15]: 0.33 µM (≈ 0.0922 µg/mL); activity against control organisms [14]: inactive
Cc1ccn2c(C(=O)NCc3ccc(Oc4ccc(F)cc4)cc3)c(C)nc2c1 [ND-9758] | 6.07 µM (≈ 2.36 µg/mL) | 5.21 µM (≈ 2.03 µg/mL) | <0.195 µM | <0.195 µM | <0.195 µM | –
NNC(=O)c1ccncc1 [INH, Isoniazid, reference compound] | – | – | – | – | – | MIC90 ([4]; Mycobacteroides chelonae): > 500 µM; MIC90 ([5]; Mycobacterium marinum): > 500 µM; MIC90 ([6]; Mycobacterium avium): > 500 µM; MIC90 ([7]; Mycobacterium kansasii): 5.82 µM (≈ 0.798 µg/mL); MIC90 [8, 15]: < 1.95 µM
Cc1ccn2c(C(=O)NCc3cccc(F)c3)c(C)nc2c1 [ND-9361] | – | – | – | – | – | MIC90 [13]: ≥ 5 µg/mL
C[C@]1(COc2ccc(N3CCC(Oc4ccc(OC(F)(F)F)cc4)CC3)cc2)Cn2cc([N+](=O)[O-])nc2O1 [OPC-67683] | – | – | – | – | – | MIC [1]: MIC of 0.006-0.024 μg/mL; MIC [2]: MIC of 0.006-0.024 μg/mL
Cc1ccc2nc(C)c(C(=O)NCc3ccc(S(C)(=O)=O)cc3)n2c1 [ND-9965] | >50 µM | >50 µM | 6.03 µM (≈ 2.16 µg/mL) | 6.03 µM (≈ 2.16 µg/mL) | 0.23 µM (≈ 0.0822 µg/mL) | –
Cc1ccn2c(C(=O)NCc3ncc(C(F)(F)F)cc3Cl)c(C)nc2c1 [ND-9902] | >50 µM | >50 µM | 4.42 µM (≈ 1.69 µg/mL) | 4.42 µM (≈ 1.69 µg/mL) | 0.75 µM (≈ 0.287 µg/mL) | –

Reference: patent publication US9309238B2, “Imidazo [1,2-a]pyridine compounds, synthesis thereof, and methods of using same” (priority 2009, dated 2016)
